In ChEMBL document CHEMBL2417502, “Polyketides from the littoral plant associated fungus Pseudallescheria boydii” (2013):

The molecules below were run on A549 (assay: Cytotoxicity against human A549 cells after 72 hrs by SRB assay). Settings: A549, 72 h.
Format: functional
Molecule `CC[C@H](C)C1=C(OC)[C@H](O)[C@](C)(CC)C1=O` has a GI50 of 41.3 µM.
With `O=c1[nH]cc(F)c(=O)[nH]1` [FLUOROURACIL] the GI50 was 3.6 µM.
`CO[C@@H]1C(=O)CC[C@]2(CO2)[C@@]1(O)[C@@]1(C)O[C@@H]1CC=C(C)C` [OVALICIN] showed a GI50 of 4.1 µM.
